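All cell lines were grown in 96-well plates and treated with compound for 48 hours. The concentration for full growth arrest is given as TGI.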
Legend:
Test in all cases: DTP human tumour cell line panel, 48 h
786-0 renal = tested on: 786-0 renal
A498 renal = tested on: A498 renal
A549 NSCLC = tested on: A549 NSCLC
ACHN renal = tested on: ACHN renal
BT-549 breast = tested on: BT-549 breast
CAKI-1 renal = tested on: CAKI-1 renal
CCRF-CEM leukemia = tested on: CCRF-CEM leukemia
COLO 205 colon = tested on: COLO 205 colon
EKVX NSCLC = tested on: EKVX NSCLC
HCC-2998 colon = tested on: HCC-2998 colon
HCT-116 colon = tested on: HCT-116 colon
HCT-15 colon = tested on: HCT-15 colon
HL-60(TB) leukemia = tested on: HL-60(TB) leukemia
HOP-62 NSCLC = tested on: HOP-62 NSCLC
HOP-92 NSCLC = tested on: HOP-92 NSCLC
HS 578T breast = tested on: HS 578T breast
HT29 colon = tested on: HT29 colon
IGROV1 ovarian = tested on: IGROV1 ovarian
K-562 leukemia = tested on: K-562 leukemia
KM12 colon = tested on: KM12 colon
LOX IMVI melanoma = tested on: LOX IMVI melanoma
M14 melanoma = tested on: M14 melanoma
MALME-3M melanoma = tested on: MALME-3M melanoma
MCF7 breast = tested on: MCF7 breast
MDA-MB-231 breast = tested on: MDA-MB-231 breast
MDA-MB-435 = tested on: MDA-MB-435
MDA-N = tested on: MDA-N
MOLT-4 leukemia = tested on: MOLT-4 leukemia
NCI-H226 lung = tested on: NCI-H226 lung
NCI-H23 lung = tested on: NCI-H23 lung
NCI-H460 lung = tested on: NCI-H460 lung
NCI-H522 lung = tested on: NCI-H522 lung
NCI/ADR-RES ovarian = tested on: NCI/ADR-RES ovarian
OVCAR-3 ovarian = tested on: OVCAR-3 ovarian
OVCAR-4 ovarian = tested on: OVCAR-4 ovarian
OVCAR-5 ovarian = tested on: OVCAR-5 ovarian
OVCAR-8 ovarian = tested on: OVCAR-8 ovarian
PC-3 prostate = tested on: PC-3 prostate
RPMI-8226 leukemia = tested on: RPMI-8226 leukemia
RXF 393 renal = tested on: RXF 393 renal
SF-295 CNS = tested on: SF-295 CNS
SF-539 CNS = tested on: SF-539 CNS
SK-MEL-2 melanoma = tested on: SK-MEL-2 melanoma
SK-MEL-5 melanoma = tested on: SK-MEL-5 melanoma
SK-OV-3 ovarian = tested on: SK-OV-3 ovarian
SN12C renal = tested on: SN12C renal
SNB-19 CNS = tested on: SNB-19 CNS
SNB-75 CNS = tested on: SNB-75 CNS
SR leukemia = tested on: SR leukemia
SW-620 colon = tested on: SW-620 colon
T-47D breast = tested on: T-47D breast
TK-10 renal = tested on: TK-10 renal
U251 CNS = tested on: U251 CNS
UACC-257 melanoma = tested on: UACC-257 melanoma
UACC-62 melanoma = tested on: UACC-62 melanoma
DU-145 prostate = tested on: DU-145 prostate
SF-268 CNS = tested on: SF-268 CNS
SK-MEL-28 melanoma = tested on: SK-MEL-28 melanoma
UO-31 renal = tested on: UO-31 renal

In the case of `COC(=O)/C=C(\S/C=C(/c1ccccc1)N1CCn2c(C(=O)c3ccccc3)c(C(=O)OC)c(C(=O)OC)c21)C(=O)OC`, the TGI (786-0 renal) is reported as 3.19 µM, the TGI (A498 renal) is reported as > 10 µM and the TGI (A549 NSCLC) is reported as > 10 µM. The TGI (ACHN renal) was > 10 µM, the TGI (BT-549 breast) was > 10 µM and the TGI (CAKI-1 renal) was > 10 µM. The TGI (CCRF-CEM leukemia) was 4.2 µM, the TGI (COLO 205 colon) was 3.46 µM and the TGI (EKVX NSCLC) was > 10 µM. For the same molecule, the TGI (HCC-2998 colon) was > 10 µM, the TGI (HCT-116 colon) was 5 µM and the TGI (HCT-15 colon) was 6.7 µM. For the same molecule, the TGI (HL-60(TB) leukemia) was 2.6 µM, the TGI (HOP-62 NSCLC) was 5.02 µM and the TGI (HOP-92 NSCLC) was 4.73 µM. The TGI (HS 578T breast) was > 10 µM, the TGI (HT29 colon) was > 10 µM and the TGI (IGROV1 ovarian) was > 10 µM. The TGI (K-562 leukemia) was > 10 µM, the TGI (KM12 colon) was > 10 µM and the TGI (LOX IMVI melanoma) was 4.28 µM. It also gave a TGI (M14 melanoma) of 5.83 µM, a TGI (MALME-3M melanoma) of 4.81 µM and a TGI (MCF7 breast) of 4.33 µM. For the same molecule, the TGI (MDA-MB-231 breast) was 5.27 µM, the TGI (MDA-MB-435) was > 10 µM and the TGI (MDA-N) was > 10 µM. The TGI (MOLT-4 leukemia) was 5.64 µM, the TGI (NCI-H226 lung) was > 10 µM and the TGI (NCI-H23 lung) was > 10 µM. The TGI (NCI-H460 lung) was > 10 µM, the TGI (NCI-H522 lung) was 1.73 µM and the TGI (NCI/ADR-RES ovarian) was > 10 µM. For the same molecule, the TGI (OVCAR-3 ovarian) was 2.87 µM, the TGI (OVCAR-4 ovarian) was 6.57 µM and the TGI (OVCAR-5 ovarian) was > 10 µM. The TGI (OVCAR-8 ovarian) was 3.21 µM, the TGI (PC-3 prostate) was > 10 µM and the TGI (RPMI-8226 leukemia) was 7.49 µM. For the same molecule, the TGI (RXF 393 renal) was 4.67 µM, the TGI (SF-295 CNS) was > 10 µM and the TGI (SF-539 CNS) was 3.74 µM. The TGI (SK-MEL-2 melanoma) was > 10 µM, the TGI (SK-MEL-5 melanoma) was > 10 µM and the TGI (SK-OV-3 ovarian) was > 10 µM. The TGI (SN12C renal) was > 10 µM, the TGI (SNB-19 CNS) was > 10 µM and the TGI (SNB-75 CNS) was > 10 µM. The TGI (SR leukemia) was > 10 µM, the TGI (SW-620 colon) was 2.03 µM and the TGI (T-47D breast) was 5.91 µM. The TGI (TK-10 renal) was 5.61 µM, the TGI (U251 CNS) was > 10 µM and the TGI (UACC-257 melanoma) was 9.21 µM. For the same molecule, the TGI (UACC-62 melanoma) was > 10 µM.
For `COc1cccc2cc(C(C)=O)c(=O)oc12`, the TGI (786-0 renal) was > 100 µM, the TGI (A498 renal) was > 100 µM and the TGI (A549 NSCLC) was > 100 µM. The TGI (ACHN renal) was > 100 µM, the TGI (BT-549 breast) was > 100 µM and the TGI (CAKI-1 renal) was > 100 µM. The TGI (CCRF-CEM leukemia) was > 100 µM, the TGI (COLO 205 colon) was > 100 µM and the TGI (DU-145 prostate) was > 100 µM. The TGI (EKVX NSCLC) was > 100 µM, the TGI (HCC-2998 colon) was > 100 µM and the TGI (HCT-116 colon) was > 100 µM. The TGI (HL-60(TB) leukemia) was > 100 µM, the TGI (HOP-62 NSCLC) was > 100 µM and the TGI (HOP-92 NSCLC) was > 100 µM. The TGI (HS 578T breast) was > 100 µM, the TGI (HT29 colon) was > 100 µM and the TGI (IGROV1 ovarian) was > 100 µM. The TGI (K-562 leukemia) was > 100 µM, the TGI (KM12 colon) was > 100 µM and the TGI (LOX IMVI melanoma) was > 100 µM. For the same molecule, the TGI (M14 melanoma) was > 100 µM, the TGI (MALME-3M melanoma) was > 100 µM and the TGI (MCF7 breast) was > 100 µM. The TGI (MDA-MB-231 breast) was > 100 µM, the TGI (MDA-MB-435) was > 100 µM and the TGI (MDA-N) was > 100 µM. For the same molecule, the TGI (MOLT-4 leukemia) was > 100 µM, the TGI (NCI-H226 lung) was > 100 µM and the TGI (NCI-H23 lung) was > 100 µM. The TGI (NCI-H460 lung) was > 100 µM, the TGI (NCI-H522 lung) was > 100 µM and the TGI (NCI/ADR-RES ovarian) was > 100 µM. For the same molecule, the TGI (OVCAR-3 ovarian) was > 100 µM, the TGI (OVCAR-4 ovarian) was > 100 µM and the TGI (OVCAR-5 ovarian) was > 100 µM. The TGI (OVCAR-8 ovarian) was > 100 µM, the TGI (PC-3 prostate) was > 100 µM and the TGI (RPMI-8226 leukemia) was > 100 µM. For the same molecule, the TGI (RXF 393 renal) was > 100 µM, the TGI (SF-268 CNS) was > 100 µM and the TGI (SF-295 CNS) was > 100 µM. For the same molecule, the TGI (SF-539 CNS) was > 100 µM, the TGI (SK-MEL-2 melanoma) was > 100 µM and the TGI (SK-MEL-28 melanoma) was > 100 µM. For the same molecule, the TGI (SK-MEL-5 melanoma) was > 100 µM, the TGI (SN12C renal) was > 100 µM and the TGI (SNB-75 CNS) was > 100 µM. For the same molecule, the TGI (SR leukemia) was > 100 µM, the TGI (SW-620 colon) was > 100 µM and the TGI (T-47D breast) was > 100 µM. The TGI (TK-10 renal) was > 100 µM, the TGI (U251 CNS) was > 100 µM and the TGI (UACC-257 melanoma) was > 100 µM. The TGI (UACC-62 melanoma) was > 100 µM and the TGI (UO-31 renal) was > 100 µM.
